Assay results published in ChEMBL document CHEMBL1134404, “Bisubstrate analogue inhibitors of 6-hydroxymethyl-7,8-dihydropterin pyrophosphokinase: synthesis and biochemical and crystallographic studies” (J Med Chem, 2001).

Assay: Compound was tested for the binding affinity towards HPPK Receptor without Mg 2
Set-up: species or system Escherichia coli

## Nc1nc2ncc(COP(=O)(O)OP(=O)(O)OP(=O)(O)OP(=O)(O)OC[C@H]3O[C@@H](n4cnc5c(N)ncnc54)[C@H](O)[C@@H]3O)nc2c(=O)[nH]1
  Kd: 1930 nM
